# Test results reported in patent publication US20180177724A1, “SITE-TARGETED NANO-LIPOSOMAL NITROGLYCERIN THERAPEUTICS” (The Regents of the University of California, priority 2015, published 2018).
# Read-outs that look alike come from different tables or passages of the source.
# Assays:
# [1] = system: U937 monocytic cell adhesion to L-NIO-treated ECs; test: Monocyte adhesion assay, L-NIO-treated (NO-deficient) ECs; assay type: cell-based, human; conditions: for U937 cell-EC adhesion after 4 hr treatment: L-NIO
# Experimental: Human microvascular endothelial cells (HMEC-1) were purchased from the Center for Disease Control (CDC) and cultured on gelatin-coated tissue culture dishes in growth medium composed of MCDB-131 (VWR International, USA) supplemented with 10% FBS (Fisherbrand, USA), 2 mM L-Glutamine (Invitrogen, USA), 1× antimycotic/antibiotic mixture (Life Technologies, USA), 10 ng/mL huEGF (Millipore, USA) and 1 μg/mL Hydrocortizone (Sigma Aldrich, USA). Human U937 monocyte cells were purchased from ATCC (Manassas, Va., USA) and cultured in suspension in growth medium composed of RPMI 1640 (Fisherbrand, USA) supplemented with 2 mM L-Glutamine (Invitrogen), 10 mM HEPES (Fisherbrand, USA), 10% FBS (Fisherbrand), antimycotic/antibiotic mixture (Life Technologies, USA), 1 mM sodium pyruvate (Life Technologies, USA) and 4.5 mg/mL glucose (Sigma Aldrich, USA).
# After 30 min of monocyte-EC interaction at 37° C., monocyte suspension was removed and the EC monolayers gently rinsed twice with PBS (to remove unbound monocytes) prior to fixation in 1% paraformaldehyde (PFA; Electron Microscopy Sciences, USA). Fluorescent images (10 per condition) of labeled U937 cells were then acquired using a Nikon Eclipse Ti microscope (Nikon, Japan) fitted with a Nikon Digital Sight DS-Qi1Mc camera and the number of adherent monocytes was counted using ImageJ software (NIH).
# [2] = system: endothelial NO production; test: EC-secreted (extracellular) NO by Nitric Oxide Analyzer (NOA); assay type: cell-based, human; conditions: NTG 5 μM, L-NIO-treated ECs
# Experimental: (§1) Two independent methods were used to measure the amount of NO produced by ECs. In the first method, ECs were treated overnight with L-NIO (5 mM)±NTG (5 μM) or NTG-NL (10 μg/mL), followed by incubation with a NO-sensitive fluorescent dye DAF-FM diacetate (2 μM; Life Technologies, USA) for 20 minutes at 37° C. Following dye loading, ECs were again treated with L-NIO and NTG during a recovery phase for an additional 1 h in regular growth medium. EC culture media was then rinsed once with Krebs-Henseleit Buffer (KHB) containing 125 mM NaCl, 4.74 mM KCl, 2.5 mM CaCl2, 1.2 mM KH2PO4 1.2 mM MgSO4, 5 mM NaHCO3 and 10 mM Glucose (Sigma Aldrich, USA), replaced with fresh KHB and immediately subjected to live cell fluorescence imaging using Nikon Eclipse Ti microscope. At least 30 cells per condition were analyzed for total cell fluorescence using ImageJ software (NIH). For the second method, a Nitric Oxide Analyzer (NOA; Sievers, USA) was used to measure EC-secreted NO in culture medium. For this measurement, confluent ECs were treated overnight with either L-NIO (5 mM)±NTG (5 μM) or NTG alone, followed by sequential 1 h incubations with KHB without and with L-NIO±NTG at 37° C. KHB conditioned medium (4 replicates per condition) was then collected and analyzed using NOA.
# [3] = system: endothelial NO production; test: Intracellular NO by DAF-FM diacetate fluorescence; assay type: cell-based, human; conditions: NTG 5 μM
# Experimental: as §1
# [4] = system: endothelial ICAM-1 clustering; test: ICAM-1 clustering in U937 cell-EC co-cultures; assay type: cell-based, human; conditions: NTG 5 μM
# Experimental: ECs were grown to confluence on glass coverslips under normal growth conditions and treated with L-NIO (5 mM)±[NTG (5 μM) or NTG-NL (5 μg/mL)] for 24 h. Next, a monocyte adhesion assay was performed (as described earlier) and the monocyte-EC co-cultures fixed, permeabilized with 0.1% Triton X-100, blocked with 2% bovine serum albumin (BSA; Millipore, USA), and sequentially incubated with primary anti-ICAM-1 mouse antibody (Santa Cruz Biotechnology, USA) and secondary FITC-conjugated DyLight 488 anti-mouse IgG (Vector Labs, USA). To visualize actin microfilaments, monocyte-EC co-cultures were incubated with Alexa Fluor 594-Phalloidin (BD Biosciences, USA). Coverslips were mounted onto glass slides and fluorescence images (15 per condition) were taken using a Nikon Eclipse Ti microscope fitted with a Nikon Digital Sight DS-Qi1Mc camera. ICAM-1 clustering index was determined using ImageJ by normalizing the total monocyte fluorescence (from at least 30 cells) to the background of the surrounding EC cytoplasm.
# [5] = system: endothelial mitochondrial superoxide; test: Endothelial mitochondrial superoxide production (MitoSOX); assay type: cell-based, human; conditions: free NTG 100 μM (20-fold above effective dose), L-NIO-treated ECs
# Experimental: ECs were plated at sub-confluence on gelatin-coated MatTek dishes under normal culture conditions and subjected to overnight treatment with either L-NIO (3 mM)±[NTG (5, 25, or 100 μM) or NTG-NL (5, 50 or 100 μg/mL)]. To detect mitochondrial superoxide, ECs were labeled with MitoSOX™ (Life Technologies, USA), a mitochondrial superoxide-sensitive fluorescent dye that is widely used to measure mitochondrial ROS production under various conditions, including NTG treatment. ECs were labeled with MitoSOX™ Red at a final dose of 5 μM in KHB for 10 minutes at 37° C., rinsed three times with KHB to remove excess dye and placed at 37° C. in KHB for an additional 10 minutes prior to live cell imaging. Fluorescence images (six per condition) were acquired using Nikon Eclipse Ti microscope and total cell fluorescence intensity from at least 20 cells was analyzed using ImageJ software.
# [6] = system: isolated sheep pulmonary arteries; test: Pulmonary artery ring isometric tension: NTG-induced vasorelaxation after pretreatment
# Experimental: All animal procedures were in accordance with the Animal Welfare Act, the Guiding Principles in the Care and Use of Animals approved by the Council of the American Physiological Society, the National Institutes of Health Guide for the Care and Use of Laboratory Animals, and Loma Linda University Institutional Animal Care and Use Committee (IACUC). Pregnant ewes were anesthetized with ketamine (10 mg/kg, IV) and midazolam (5 mg/kg, IV) and anesthesia maintained with inhalation of 1-3% isofluranein O2 throughout surgery as required. Ewes and Fetuses were euthanized with an overdose of Euthasol (pentobarbital sodium, 100 mg/kg) and phenytoin sodium (10 mg/kg; Virbac, Ft. Worth, Tex.).
# To assess arterial vasorelaxation in response to NTG treatment, pulmonary arteries (4th-5th order) were harvested from newborn fetal sheep (gestational period between 138-141 days), dissected free of parenchyma and cut into 5 mm long rings (at least 8 per condition) in ice-cold HEPES buffer (Sigma Aldrich, USA). […] Following treatment, rings were mounted onto tungsten wires under 0.5 g of resting tension in organ baths containing KHB, gassed with 95% O2-5% CO2, and maintained at 37° C. Arterial rings were rinsed once with KHB, allowed to equilibrate for at least 30 minutes, and re-tensioned prior to addition of 125 mM KCl (Sigma Aldrich, USA) to ensure rings were still functional. Rings were rinsed three times to remove KCl, allowed to relax, and preconstricted with 10 μM Serotonin (Tocris Bioscience, USA) to achieve 100% contraction. Rings were then exposed to increasing concentrations of free NTG (1 nM to 100 μM) and subsequent recordings of concentration-response curves were acquired using a force displacement transducer (AD Instruments, New Zealand) and analyzed using Prism (Graphpad Software Inc).
# [7] = in vivo; cited from earlier work
smiles,measurement,setting,value
"O=[N+]([O-])OCC(CO[N+](=O)[O-])O[N+](=O)[O-] [NTG, Nitroglycerin]",effect on U937 monocytic cell adhesion to ECs,[1],dose-dependent inhibition
same,EC50,"[1]; Homo sapiens, U-937, read-out: EC50, inhibition of human monocyte adhesion to NO-deficient human microvascular ECs",0.64 µM
same,effective anti-inflammatory NTG dose,"[1]; L-NIO-treated ECs, adhesion back to level of untreated ECs",5 µM
same,U937 cell-EC adhesion after 4 hr treatment,[1]; NTG 5 μM,significant inhibition of U937 cell-EC adhesion
same,U937 cell-EC adhesion after 4 hr treatment,[1]; free NTG 100 μM,loses its therapeutic effect
same,loss (decrease) in anti-inflammatory effect at high dose,"[1]; free NTG 100 μM, L-NIO-treated ECs",~2 fold
same,anti-inflammatory effect of free NTG at the amount equivalent to NTG-NL,[1]; listed as Free NTG,does not produce a significant anti-inflammatory effect
same,anti-inflammatory effect of free NTG at the amount equivalent to NTG-NL,[1]; listed as free NTG,failed to produce a significant anti-inflammatory effect
same,recovery of EC-dependent (extracellular) NO production,[2],complete recovery
same,recovery of intracellular NO in L-NIO-treated cells,[3],79%
same,effect on ICAM-1 clustering induced by L-NIO,[4],inhibited
same,increase in mitochondrial superoxide formation,[5],2 fold
same,IC50,"[6]; Ovis aries, read-out: Mean IC50 of NTG-induced relaxation, arteries pretreated 4 h with free NTG 5 μM",0.25 µM
same,IC50,"[6]; Ovis aries, read-out: Mean IC50 of NTG-induced relaxation, arteries pretreated 4 h with free NTG 100 μM",15 µM
same,IC50,"[6]; Ovis aries, read-out: −Log IC50 of NTG-induced relaxation, arteries pretreated 4 h with free NTG 5 μM (converted), mean ± SEM",0.251 µM
same,IC50,"[6]; Ovis aries, read-out: −Log IC50 of NTG-induced relaxation, arteries pretreated 4 h with free NTG 100 μM (converted), mean ± SEM",15.5 µM
same,Maximal Relaxation (%),"[6]; arteries pretreated 4 h with free NTG 5 μM, mean ± SEM",69 ± 4 %
same,Maximal Relaxation (%),"[6]; arteries pretreated 4 h with free NTG 100 μM, mean ± SEM",66 ± 9%
same,IC50,"[6]; read-out: Mean IC50 of NTG-induced relaxation, arteries pretreated 4 h with free NTG 100 μM",15.5 µM
same,time of clearance of NTG from bloodstream,[7],15 to 30 min
